Measurements taken from US20050031537A1, “Multifunctional COX-2 inhibitors” (priority 2002, published 2005).

What was measured:
[1] = system: EGFR; experiment: Western blotting for expression of EGFR (test (b)); assay type: cell-based, human; conditions: for Test (b) EGFR: at least 50% decrease in level of or 50% downregulation of expression: positive in 184B5, 184B5/HER, 1483, LNCaP, HeLa and CaSki cells, 24 h, Western blot
Description: We turn now to the criterion (b), that is at least 50% decrease in level of or 50% downregulation of expression of Class I family of receptors tyrosine kinase. The Class I family of receptors tyrosine kinase is described in Reese, M. D., et al Stem Cells 15, pages 1-8 (1997), the whole of which in incorporated herein by reference. Members of the family include HER-2/neu, HER-3, HER-4 and epidermal growth factor receptor (EGFR) and are single-chain membrane spanning proteins which have significant homology to one another including about 80% amino acid identity in the tyrosine kinase domain.
Epidermal growth factor receptor (EGFR) is a 170 kDA glycoprotein. […] After ligand binding, EGFR undergoes dimerization which is essential for activation of its enzymatic kinase activity. EGFR is thus autophospliorylated and transphosphorylated on tyrosine residues, and the phosphorylated residues become the site of association of effector proteins. Overexpressed EGFR is intimately involved in modulating the epidermal growth factor growth signal and is considered as likely to confer a growth advantage. This conclusion is supported by the observation that tumor growth in nude mice is inhibited by treatment with anti-EGFR antibodies and tumorigenicity in nude mice is inhibited through blockage of the tyrosine kinase activity of the receptor.
To evaluate the expression of Class I family of receptors tyrosine kinase (EGFR, HER-2/neu), Western blotting can be performed. Antibodies for EGFR and HER-2/neu can be obtained from Santa Cruz Biotechnology, Inc.
Expression of EGFR (performed in 184B5, 184B5/HER, 1483, LNCaP, HeLa and CaSki cells)and HER-2/neu (performed in 184B5/HER, SKBR3 and BT474 cells) was assessed in cells after treatment with test compound for 24 hours. 5×10^6 cells were used for the treatment. Western blotting technique was used to assess the expression levels in cells treated with the test compound compared to vehicle alone. Western blotting was carried out as follows:
Cell lysates were prepared by treating cells with lysis buffer (150 mM NaCl, 100 mM Tris (pH 8.0), 1% Tween 20, 50 mM diethyldithiocarbamate, 1 mM EDTA, 1 mM phenylmethylsulfonyl fluoride, 10 μg/ml aprotinin, 10 μg/ml trypsin inhibitor and 10 μg/ml leupeptin). Lysates were sonicated for 20 s on ice and centrifuged at 10,000×g for 10 min to sediment the particulate material. The protein concentration of the supernatant was measured by the method of Lowry, O. H., et al., J. Biol. Chem. 193, 265-275 (195 1). SDS/PAGE was performed under reducing conditions on 10% polyacrylamide gels as described by Laemmli, U.K., Nature (Lond.) 227, 680-685 (1970). The resolved proteins were transferred onto nitrocellulose sheets as detailed by Towbin, H. et al., Proc. Natl. Acad. Sci. USA 76, 4350-4354 (1979). The nitrocellulose membrane was then incubated with anti-EGFR antiserum or anti-HER-2/neu antiserum. Secondary antibody to IgG conjugated to horseradish peroxidase was used. The various antisera were purchased from Santa Cruz Biotechnology, Inc., CA. The blots were probed with the Renaissance Western blot detection system according to the manufacturer's instructions (PerkinElmer Life Sciences, Boston, Mass.).

[2] = Patient with Alzheimer's disease (Example V); assay type: in vivo, human; conditions: person two, 200 mg bid
Description: person two presents with symptoms of memory loss and is diagnosed with Alzheimer's disease. The patient is given and maintained on a 200 mg bid dose of indomethacin heptyl ester. The progression of the symptoms stops.

[3] = Patient with colon cancer (Example IV); assay type: in vivo, human; conditions: person, 800 mg bid
Description: A person presents with symptoms of constipation and rectal bleeding and is diagnosed with colon cancer.

[4] = Patient with cervical intraepithelial neoplasia, HPV 16 detected (Example VIII); assay type: in vivo, human; conditions: person, 0.5% in a cream on sponge/cervical cap, six months
Description: A person presents to their gynecologist for evaluation. […] On biopsy, the patient is found to have cervical intraepithelial neoplasia. HPV 16 is detected. […] The SC-236 is discontinued with no recurrence of cervical intraepithelial neoplasia.

[5] = Patient with oral premalignant lesion (Example VII); assay type: in vivo, human; conditions: person, lozenges 100 mg twice a day for six months
Description: A person presents with a white patch on their tongue and is diagnosed as having an oral premalignant lesion.

Structure (SMILES) | Test (b) EGFR: at least 50% decrease in level of or 50% downregulation of expression [1] | progression of the symptoms (memory loss, Alzheimer's disease) [2] | decrease in level of EGFR ([1]; 184B5 cells, 24 hours, Western blotting) | rate of progression of the colon cancer [3] | repeat biopsy finding of cervical intraepithelial neoplasia [4] | outcome of oral premalignant lesion [5]
CS(=O)(=O)c1ccc(-n2nc(C(F)(F)F)cc2-c2ccc(F)cc2)cc1 [SC-58125, 4-[5-(4-fluorophenyl)-3-(trifluoromethyl)-1H-pyrazol-1-yl]benzenemethylsulfone] | + (A plus sign in the table indicates a positive result, that is meeting the test for each cell line as indicated above as providing a positive result) | – | – | – | – | –
CCCCCCCOC(=O)Cc1c(C)n(C(=O)c2ccc(Cl)cc2)c2ccc(OC)cc12 [Indomethacin Analog 1, indomethacin heptyl ester] | + (A plus sign in the table indicates a positive result, that is meeting the test for each cell line as indicated above as providing a positive result) | stops | – | – | – | –
COc1ccc(OC(=O)Cc2c(C)n(C(=O)c3ccc(Cl)cc3)c3ccc(OC)cc23)cc1 [Indomethacin Analog 3, 1-(p-chlorobenzoyl)-5-methoxy-2-methyl-1H-indole-3-acetic acid, 4-methoxyphenyl ester] | + (A plus sign in the table indicates a positive result, that is meeting the test for each cell line as indicated above as providing a positive result) | – | – | – | – | –
NS(=O)(=O)c1ccc(-n2nc(C(F)(F)F)cc2-c2ccc(Cl)cc2)cc1 [SC-236, 4-[5-(4-chlorophenyl)-3-(trifluoromethyl)-1H-pyrazol-1-yl]benzenesulfonamide] | + (A plus sign in the table indicates a positive result, that is meeting the test for each cell line as indicated above as providing a positive result) | – | more than 50% | decreases | no further evidence of cervical intraepithelial neoplasia | resolution of the premalignant lesion
Cc1ccc(-c2cc(C(F)(F)F)nn2-c2ccc(S(N)(=O)=O)cc2)cc1 [Celecoxib] | + (A plus sign in the table indicates a positive result, that is meeting the test for each cell line as indicated above as providing a positive result) | – | – | decreases | – | –
